From patent publication US20150099883A1, “ARYLOXYUREA COMPOUND AND PEST CONTROL AGENT” (NIPPON SODA CO., LTD., priority 2012, published 2015) come the findings set out here.

Series [1] relates to adult female Tetranychus kanzawai from Okayama Prefecture. In words: Efficacy test against Tetranychus kanzawai (spray on kidney bean plant). In kind it is in vivo. As to conditions: 500 ppm emulsion sprayed. How it is done: Ten adult female Tetranychus kanzawai acarus from Okayama Prefecture were inoculated onto the first leaves of a kidney bean plant planted in a No. 3 pot 7 to 10 days after germination. Next, an emulsion was prepared having the formula indicated in the aforementioned Preparation example 2. This emulsion was diluted with water to a compound concentration of 500 ppm or 125 ppm after which the diluted liquids were sprayed onto the kidney bean plant. The kidney bean plant was then placed in a temperature-controlled room at a temperature of 25° C. and humidity of 65%. The life and death of the adult insects were investigated 3 days after the spraying. In addition, the development from eggs laid to adult was investigated 14 days after the spraying.
The aforementioned test was carried out on the emulsion containing the Compound No. 2-1 at 500 ppm. As a result, the insect mortality rates after 3 days and 14 days for the compound were 90% or higher.

With `CCN(Oc1ccc2ncsc2c1)C(=O)N=S(C)(=O)c1ccccc1` (stereo not drawn) [Compound No. 2-1], the “insect mortality rate after 3 days” value in series [1] (3 days after spraying) was at least 90%. The “insect mortality rate after 14 days” value in series [1] (14 days after spraying) is at least 90%.

Turning to `CC(C)(NC(=O)NOc1ccc2ncsc2c1)c1ccccn1`, the melting point (in general, the temperature, or range, at which the solid turns liquid) was 164 to 166 °C.
